# US20040029860A1, “Anti-proliferative drugs” (priority 2000, published 2004)
# “Also recorded” adds a separate entry of the source. Like-named read-outs stand apart in the source and are kept apart here.
# Key:
# [1] = test system: mouse Lewis lung carcinoma (3LL); assay: in vivo effect on Lewis lung carcinoma (3LL) in mice; details: 3LL inoculated C57 mice, i.p. daily, thioridazine 15 mg/kg, others 30 mg/kg; for lungs weight / tumor size compared to control group: FIG. 5
# Protocol: Female C57 black mice aged 4 weeks were used in order to evaluate the in vivo effect of cyclic psychotropic agents on tumor cells. In particular, animals were divided into 5 groups (6-8 mice each). Animals were inoculated with mouse Lewis lung carcinoma (3LL, 0.5 million each) by i.v. injection to the tail vein and then treated by i.p. injection daily for 3 weeks with the following different agents
# (5) Paroxetine (30 mg/kg).
# During the treatment period animals were inspected daily and their body weight registered twice a week. […] After the four weeks of treatment the mice were sacrificed and their lungs dissected and weighted.
# [2] = test system: doxorubicin resistant neuroblastoma cells (SH-SY5T); assay: sensitization to doxorubicin, doxorubicin resistant neuroblastoma SH-SY5T; assay type: cell-based, human; details: dose dependant, FIG. 6E, 6F
# HaCat keratinocytes = assay: keratinocyte viability, Neutral red, HaCat; assay type: cell-based, human; details: for cell viability HaCat (in words): 5-100 μM, 24 hr, Neutral red, FIG. 13A, 15A; for IC50: Homo sapiens, HaCaT
# Protocol: (§1) The drugs were administered at concentrations within the range of 5-100 μM and cell viability was measured 24 hr post-administration by Neutral red staining. The efficiency of the agents against viability of the cell lines was evaluated also by comparison with two commonly used anticancer agents (Doxorubicin and 5-fluorouracil (5-FU)) at equimolar concentrations.
# HaCat I5 keratinocytes = assay: keratinocyte viability, Neutral red, HaCat I5; assay type: cell-based, human; details: for cell viability HaCat I5 (in words): 5-100 μM, 24 hr, Neutral red, FIG. 13B, 15B; for IC50: Homo sapiens, HaCaT
# Protocol: as §1
# rat glioblastoma (C6) = assay: cell viability, glioma C6; assay type: cell-based; details: for IC50: Table 1A
# mouse melanoma (B-16) = assay: cell viability, melanoma B16; assay type: cell-based
# Protocol: (§2) Cyclic antidepressants at varying concentrations (between 10PM and 100 μM) was applied to neuroblastoma SH-SY5T, 3LL lung carcinoma, prostate (LN-CapAp), melanoma B16, and cell viability was determined as described above.
# [3] = test system: human prostate (LN-CapAp); assay: cell viability, prostate LN-Cap; assay type: cell-based; details: for inhibition of cell proliferation, LN-Cap (in words): 1 μM-100 μM, androgen dependent, FIG. 2A; for IC50: Table 1A, read-out: Viability IC50 Prostate LN-Cap
# Protocol: The effect of trifluoperazine and flupentixol was studied in two cell-lines of human prostate cancer: androgen dependent (LN-Cap) and androgen independent (PC-3).
# as §2
# [4] = test system: human prostate cancer PC-3; assay: cell viability, prostate PC-3; assay type: cell-based; details: for inhibition of cell proliferation, PC-3 (in words): 1 μM-100 μM, androgen independent, FIG. 2B; for IC50: Table 1A, read-out: Viability IC50 Prostate PC3
# different cell-lines = assay: mean IC50 over cell lines and therapeutic index
# [5] = test system: human neuroblastoma (SK-N-SH); assay: cell viability (neutral red, Almar Blue, Hoechst dye), neuroblastoma SK-N-SH; assay type: cell-based
# [6] = test system: human neuroblastoma (SH-SY5T); assay: cell viability, neuroblastoma SH-SY5T; assay type: cell-based; details: Homo sapiens
# Protocol: The effect of paroxetine on primary tissue cultures was also evaluated. […] The viability of the cells after treatment with paroxetine was determined by neutral red (NR) technology 24 hr. post treatment.
# as §2
# [7] = test system: mouse embryo whole brain culture; assay: primary tissue culture, whole brain; assay type: cell-based; details: read-out: IC50 whole brain tissue
# mouse lung sarcoma (3LL) = assay: cell viability, lung 3LL; assay type: cell-based; details: for IC50: Mus musculus, Table 1B, read-out: Cell viability IC50 Lungs Sarcoma 3LL
# Protocol: In another experiment the effect of clotiapine at the same concentrations on the viability of mouse lung carcinoma (3LL) cells was determined.
# as §2
# p53 mutant = p53 mutant expression, western blotting in glioma C6; assay type: cell-based, rat; details: 30 and 60 μM, FIG. 8
# B16 melanoma cells [8] = assay type: in vivo
# Protocol: Male C57 black mice aged 5-7 weeks were used. Animals were inoculated with B16 melanoma cells by iv. injection (200,000 cells/mouse) to the tail vein. […]. Body weight was recorded three times weekly during the experiment and survival was registered. Animals were sacrificed 24 days after cell inoculation, and lungs were dissected and weighted.
# B16 melanoma = details: for mean number of metastases: controls 53.8+; for mean lungs weight: day 27, controls 685; for mice with confluent lungs: controls 6/7
# Protocol: Female C57 mice aged 5-7 weeks were used, animals were divided into 3 treatment groups:
# 1. Controls: B16 inoculated vehicle treated;
# Half of the animals were sacrificed after 21 days and half after 27 days. Lungs weight and number of metastases were recorded.
# Melanoma B16 cells [9] = test system: Melanoma B16 cells
# Protocol: Animals were divided into three groups:
# 1. Controls B16 with no therapy;
# Water consumption was registered daily, and calculation of dose was performed according to the mean consumed water. Body weight was registered 3 time/week.
# HaCat cells = assay: DNA fragmentation, flow cytometry, HaCat; assay type: cell-based, human; details: basal 29%
# Protocol: (§3) DNA fragmentation was determined by flow cytometric analysis of propidium iodide-stained cells according to the method of Vindelov et al Vindelov, L. L., et al. Cytometry.
# HaCat I5 cells = assay: DNA fragmentation, flow cytometry, HaCat I5; assay type: cell-based, human; details: basal 10.23%
# Protocol: as §3
# B16 melanoma cells [10] = assay: sensitization to doxorubicin, B16 melanoma cells; assay type: cell-based, mouse; details: clomipramine 10, […], 20 μM with doxorubicin 1, 2.5, 5 μM; FIG. 6B
# MDR B16 melanoma = assay: sensitization to doxorubicin, MDR B16 melanoma; assay type: cell-based, mouse; details: dose dependant, FIG. 6C
# Melanoma B16 cells [11] = test system: Melanoma B16 cells; remark: listed apart in the source
# Protocol: Mice C57 black females ages 5-7 weeks were used. Mice were inoculated with Melanoma B16 cells and divided randomly (7-8/cage). Animals were divided into three groups:
# 1. Control-B16 cells with no therapy;
# 2. Treatment with doxorubicin 4 mg/kg i.p given once (3 days later).
# [12] = Mus musculus, Table 1A, read-out: Viability IC50 Melanoma B16
# [13] = primary culture, data not shown
# [14] = Mus musculus, Table 1B, read-out: Cell viability IC50 Melanoma 16B
smiles,measurement,setting,value
CNCCC(Oc1ccc(C(F)(F)F)cc1)c1ccccc1 (stereo not shown) [Fluoxetine],survival rate during four weeks of treatment,[1],5/7
same,lungs weight / tumor size compared to control group,[1],effective in reducing tumor size
same,potentiation of doxorubicin toxicity (in words),[2],potentiate the toxicity of doxorubicin
same,cell viability HaCat (in words),HaCat keratinocytes,effective in reducing cell viability
same,cell viability HaCat I5 (in words),HaCat I5 keratinocytes,effective in reducing cell viability
CN1CCN(CCCN2c3ccccc3Sc3ccc(C(F)(F)F)cc32)CC1 [Trifluoperazine],IC50,rat glioblastoma (C6); Rattus norvegicus,14 µM
same,IC50,mouse melanoma (B-16); [12],16 µM
same,"inhibition of cell proliferation, LN-Cap (in words)",[3],effective in inhibition of cell proliferation
same,IC50,"[3]; Homo sapiens, LNCaP",18 µM
same,"inhibition of cell proliferation, PC-3 (in words)",[4],effective in inhibition of cell proliferation
same,IC50,[4]; Homo sapiens,19 µM
same,IC50,different cell-lines; read-out: IC50 Mean ± SD,16.7 ± 1.9 µM
CN(C)CCCN1c2ccccc2Sc2ccc(Cl)cc21 [Chlorpromazine],IC50,"[5]; Homo sapiens, SK-N-SH, Table 1A",100 µM
same,IC50,"[6]; Table 1A, read-out: Viability IC50 Neuroblastoma SH-SY5T",15 µM
same,IC50,rat glioblastoma (C6); Rattus norvegicus,22 µM
same,IC50,mouse melanoma (B-16); [12],46 µM
same,IC50,different cell-lines; read-out: IC50 Mean ± SD,45.7 ± 33.3 µM
Cc1nc2n(c(=O)c1CCN1CCC(c3noc4cc(F)ccc34)CC1)CCCC2 [Risperidone],IC50,[7],> 200 µM
CN(C)CCCN1c2ccccc2CCc2ccccc21 [Imipramine],IC50,"[6]; Table 1B, read-out: Cell viability IC50 Neuroblastoma SH-SY5T",69 µM
same,IC50,mouse lung sarcoma (3LL),12 µM
same,IC50,different cell-lines; read-out: IC50 Mean +/− SD,38.5 µM
CSc1ccc2c(c1)N(CCC1CCCCN1C)c1ccccc1S2 (stereo not shown) [Thioridazine],survival rate during four weeks of treatment,[1],7/7
same,lungs weight / tumor size compared to control group,[1],effective in reducing tumor size
same,mean decrease in expression of p53 mutant,p53 mutant,75%
same,survival rate,B16 melanoma cells [8]; 2.5 mg/kg i.p. 3 times/week,4/5
same,survival rate,B16 melanoma cells [8]; 5 mg/kg i.p. 3 times/week,3/4
same,survival rate,B16 melanoma cells [8]; 10 mg/kg i.p. 3 times/week,5/5
same,lungs weight,"B16 melanoma cells [8]; 20 mg/kg compared to 2.5 mg/kg (p=0.05), 24 days after inoculation",significant decrease
same,survival rate,B16 melanoma cells [8]; 20 mg/kg i.p. 3 times/week,5/5
same,mean number of metastases,"B16 melanoma; 10 mg/kg i.p. x3/week, after 21 days",46.1
same,mean lungs weight,B16 melanoma; 10 mg/kg,520 mg
same,mice with confluent lungs,B16 melanoma; 10 mg/kg,6/7
same,mean number of metastases,"B16 melanoma; […] mg/kg i.p. x3/week, after 21 days",28.5
same,mean lungs weight,B16 melanoma; […] mg/kg,335 mg
same,mice with confluent lungs,B16 melanoma; […] mg/kg,2/7
same,lungs weight,"B16 melanoma; after 21 days, vs controls",No difference
same,effective doses,"B16 melanoma; parenteral route, B16 melanoma in mice",15 to 20 mg/kg
same,toxic concentrations,"B16 melanoma; parenteral route, mice",higher than 30 mg/kg
same,mice with big or conglomerate metastases,"Melanoma B16 cells [9]; 20-30 mg/kg per day, after 24 days, same rate as controls",1/7
same,animals with confluent metastases,"Melanoma B16 cells [9]; 27 and 30 days, controls 6/11",0/21
same,big or confluent metastases,"Melanoma B16 cells [9]; 30-40 mg/kg per day, after 24 days",No big or confluent metastases were found
same,spontaneous death during experiment,Melanoma B16 cells [9]; controls 5/18,2/36
same,body weight vs healthy and B16 controls,Melanoma B16 cells [9]; in drinking water,No difference
same,cell viability HaCat (in words),HaCat keratinocytes,effective in reducing cell viability; also recorded: responded
same,cell viability HaCat I5 (in words),HaCat I5 keratinocytes,effective in reducing cell viability; also recorded: responded
same,rate of DNA fragmentation,HaCat cells; 25 μM,82.8%
same,rate of DNA fragmentation,HaCat cells; 50 μM,89.3%
same,apoptosis (DNA fragmentation),HaCat I5 cells; 25 μM,74.5%
same,apoptosis (DNA fragmentation),HaCat I5 cells; 50 μM,76.6%
CCN1CCCC1CNC(=O)c1cc(S(N)(=O)=O)ccc1OC (stereo not shown) [Sulpiride],Viability IC50 Neuroblastoma SK-N-SH,[5]; Table 1C,Non Toxic
same,Viability IC50 Glioma C6,rat glioblastoma (C6); Table 1C,Non Toxic
same,Viability IC50 Prostate LN-CapAp,[3]; Table 1C,Non Toxic
same,IC50,[7]; [13],> 200 µM
"O=c1[nH]cc(F)c(=O)[nH]1 [5-FU, 5-fluorouracil]",cell viability HaCat (in words),HaCat keratinocytes,resistant
same,cell viability HaCat I5 (in words),HaCat I5 keratinocytes,resistant
OCCN1CCN(CC/C=C2/c3ccccc3Sc3ccc(C(F)(F)F)cc32)CC1 [Flupentixiol],IC50,rat glioblastoma (C6),14 µM
same,IC50,"mouse melanoma (B-16); Table 1A, read-out: Viability IC50 Melanoma B16",18 µM
same,"inhibition of cell proliferation, LN-Cap (in words)",[3],effective in inhibition of cell proliferation
same,IC50,[3],23 µM
same,"inhibition of cell proliferation, PC-3 (in words)",[4],effective in inhibition of cell proliferation
same,IC50,[4],18 µM
same,IC50,"different cell-lines; read-out: IC50 Mean ± SD, Table 1A, mean over the cell lines",18.2 ± 3.2 µM
O=C(CCCN1CCC(O)(c2ccc(Cl)cc2)CC1)c1ccc(F)cc1 [Haloperidol],IC50,[7]; [13],> 200 µM
CN(C)CCCN1c2ccccc2CCc2ccc(Cl)cc21 [Clomipramine],survival rate during four weeks of treatment,[1],7/7
same,lungs weight / tumor size compared to control group,[1],effective in reducing tumor size
same,cell viability in combination with doxorubicin,B16 melanoma cells [10],less than 15 % from control
same,cell viability in combination with doxorubicin (in words),MDR B16 melanoma,significantly decreased
same,potentiation of doxorubicin toxicity (in words),[2],potentiate the toxicity of doxorubicin
same,cell viability HaCat (in words),HaCat keratinocytes,effective in reducing cell viability
same,cell viability HaCat I5 (in words),HaCat I5 keratinocytes,effective in reducing cell viability
CN1CCN(C2=Nc3cc(Cl)ccc3Nc3ccccc32)CC1 [Clozapine],IC50,[7]; [13],> 200 µM
CN1CCN(C2=Nc3ccccc3Sc3ccc(Cl)cc32)CC1 [Clotiapine],IC50,mouse melanoma (B-16); [14],45 µM
same,"cell viability, 3LL lung carcinoma (in words)","mouse lung sarcoma (3LL); 10 μM-100 μM, FIG. 3B, 4B",effective in reducing viability
same,IC50,mouse lung sarcoma (3LL),40 µM
same,IC50,"HaCat keratinocytes; mean of the determinations, read-out: IC50 HaCat ME",> 100 µM
same,IC50,"HaCat keratinocytes; single determinations, read-out: IC50 HaCat",> 100 µM
same,IC50,"HaCat I5 keratinocytes; mean of the determinations, read-out: IC50 HaCat I5 ME",> 100 µM
same,IC50,"HaCat I5 keratinocytes; single determinations, read-out: IC50 HaCat I5",> 100 µM
COc1cccc2c1C(=O)c1c(O)c3c(c(O)c1C2=O)C[C@@](O)(C(=O)CO)C[C@@H]3O[C@H]1C[C@H](N)[C@H](O)[C@H](C)O1 [doxorubicin],cell viability HaCat (in words),HaCat keratinocytes,same equimolar IC50 levels as for thioridazine
same,cell viability HaCat I5 (in words),HaCat I5 keratinocytes,only the HaCat (non tumorigenic) cells responded
same,Confluent lung metastases (number of mice),"Melanoma B16 cells [11]; Table 2, of 7 total",3
same,Early death (number of mice),"Melanoma B16 cells [11]; Table 2, of 7 total",2
same,Non-confluent lung metastases (number of mice),"Melanoma B16 cells [11]; Table 2, of 7 total",2
same,number of animals presenting non confluent lungs,"Melanoma B16 cells [11]; after 21 days, B16 control 0/7",2/7
same,lungs weight,"Melanoma B16 cells [11]; after 21 days, B16 controls 770+/−95",538 ± 137 mg
same,survival / animals died,"Melanoma B16 cells [11]; doxorubicin 4 mg/kg i.p. once, thioridazine 25-35 mg/kg/day via drinking water",2/7
CN(C)CCC=C1c2ccccc2CCc2ccccc21 [Amitriptiline],IC50,mouse melanoma (B-16); [14],64 µM
same,IC50,different cell-lines; read-out: IC50 Mean +/− SD,64 µM
